Reference: patent publication US7964624B1, “Inhibitors of serine proteases” (priority 2005, dated 2011)

Target: T1, HCV NS3 protease domain (Hepatitis C virus genotype 1b, UniProt Q9WMX2)
T1 construct: The first 181 amino acids of NS3 (residues 1027-1207 of the viral polyprotein); hexa-histidine (C); made in house; host or cells: E. coli BL21/DE3 pLysS
Test: biochemical
Conditions: Enzyme Assay 1 (HCV NS3 Protease Domain Peptide Cleavage Assay) activity, apparent Ki class

T1 sequence (Q9WMX2 1027-1207, other chains not shown): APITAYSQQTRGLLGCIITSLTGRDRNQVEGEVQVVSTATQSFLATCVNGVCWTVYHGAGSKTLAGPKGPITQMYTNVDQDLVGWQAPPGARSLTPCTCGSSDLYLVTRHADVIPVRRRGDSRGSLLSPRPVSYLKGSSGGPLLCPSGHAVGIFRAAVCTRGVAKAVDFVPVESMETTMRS

SMILES: CCC[C@H](NC(=O)[C@@H]1C[C@]2(CC(c3cccc(Cl)c3)=NO2)CN1C(=O)[C@@H](NC(=O)CCc1ccc(F)cc1)C(C)(C)C)C(=O)C(=O)NC1CC1 [Compound 7]
- Ki: > 500 nM

SMILES: CCC[C@H](NC(=O)[C@@H]1C[C@]2(CC(c3ccc(OC)c(OC4CCCC4)c3)=NO2)CN1C(=O)[C@@H](NC(=O)O[C@H]1CCOC1)C(C)(C)C)C(=O)C(=O)NC1CC1 [Compound 8]
- Ki: > 500 nM

SMILES: CCC[C@H](NC(=O)[C@@H]1C[C@]2(CC(c3ccc(C)c(F)c3)=NO2)CN1C(=O)O[C@H]1CCOC1)C(=O)C(=O)NC1CC1 [Compound 11]
- Ki: > 500 nM

SMILES: CCC[C@H](NC(=O)[C@@H]1C[C@]2(CC(c3cccc(Cl)c3)=NO2)CN1C(=O)[C@@H](NC(=O)OCC1CCCC1)C(C)(C)C)C(=O)C(=O)NC1CC1 [Compound 14]
- Ki: > 500 nM

SMILES: CCC[C@H](NC(=O)[C@@H]1C[C@]2(CC(c3ccc(OC)c(Cl)c3)=NO2)CN1C(=O)[C@@H](NC(=O)O[C@H]1CCOC1)C(C)(C)C)C(=O)C(=O)NC1CC1 [Compound 15]
- Ki: 100 to 500 nM

SMILES: CCC[C@H](NC(=O)[C@@H]1C[C@]2(CC(c3ccc(OC)cc3)=NO2)CN1C(=O)[C@@H](NC(=O)CC1CCOCC1)C(C)(C)C)C(=O)C(=O)NC1CC1 [Compound 16]
- Ki: > 500 nM

SMILES: CCC[C@H](NC(=O)[C@@H]1C[C@]2(CC(c3cccc(Cl)c3)=NO2)CN1C(=O)[C@@H](NC(=O)C1(O)CCCC1)C(C)(C)C)C(=O)C(=O)NC1CC1 [Compound 20]
- Ki: > 500 nM

SMILES: CCC[C@H](NC(=O)[C@@H]1C[C@]2(CC(c3cccc(F)c3)=NO2)CN1C(=O)[C@@H](NC(=O)O[C@H]1CCOC1)C(C)(C)C)C(=O)C(=O)NC1CC1 [Compound 24]
- Ki: 100 to 500 nM

SMILES: CCC[C@H](NC(=O)[C@@H]1C[C@]2(CC(c3cccc(Cl)c3)=NO2)CN1C(=O)[C@@H](NC(=O)OCC1CCC1)C(C)(C)C)C(=O)C(=O)NC1CC1 [Compound 27]
- Ki: 100 to 500 nM

SMILES: CCC[C@H](NC(=O)[C@@H]1C[C@]2(CC(c3ccc(Cl)c(Cl)c3)=NO2)CN1C(=O)[C@@H](NC(=O)O[C@H]1CCOC1)C(C)(C)C)C(=O)C(=O)NC1CC1 [Compound 32]
- Ki: 100 to 500 nM

SMILES: CCC[C@H](NC(=O)[C@@H]1C[C@]2(CC(c3cccc(Cl)c3)=NO2)CN1C(=O)[C@@H](NC(=O)NC1CCCCC1)C(C)(C)C)C(=O)C(=O)NC1CC1 [Compound 33]
- Ki: < 100 nM

SMILES: CCC[C@H](NC(=O)[C@@H]1C[C@]2(CC(c3ccc(C)c(C)c3)=NO2)CN1C(=O)[C@@H](NC(=O)O[C@H]1CCOC1)C(C)(C)C)C(=O)C(=O)NC1CC1 [Compound 36]
- Ki: 100 to 500 nM

SMILES: CCC[C@H](NC(=O)[C@@H]1C[C@]2(CC(c3cccc(Cl)c3)=NO2)CN1C(=O)[C@@H](NC(=O)CC1CCOCC1)C1CCCCC1)C(=O)C(=O)NC1CC1 [Compound 37]
- Ki: > 500 nM

SMILES: CCC[C@H](NC(=O)[C@@H]1C[C@]2(CC(c3cccc(Cl)c3)=NO2)CN1C(=O)[C@@H](NC(=O)OCc1ccccc1Cl)C(C)(C)C)C(=O)C(=O)NC1CC1 [Compound 39]
- Ki: 100 to 500 nM

SMILES: CCC[C@H](NC(=O)[C@@H]1C[C@]2(CC(c3cncc(Br)c3)=NO2)CN1C(=O)[C@@H](NC(=O)CC1CCCCC1)C(C)(C)C)C(=O)C(=O)NC1CC1 [Compound 41]
- Ki: < 100 nM

SMILES: CCC[C@H](NC(=O)[C@@H]1C[C@]2(CC(c3cccc(Cl)c3)=NO2)CN1C(=O)[C@@H](NC(=O)CCC(C)=O)C(C)(C)C)C(=O)C(=O)NC1CC1 [Compound 44]
- Ki: 100 to 500 nM

SMILES: CCC[C@H](NC(=O)[C@@H]1C[C@]2(CC(c3ccc(CC)cc3)=NO2)CN1C(=O)O[C@H]1CCOC1)C(=O)C(=O)NC1CC1 [Compound 47]
- Ki: > 500 nM

SMILES: CCC[C@H](NC(=O)C1C[C@]2(CC(c3ccc4c(c3)OCO4)=NO2)CN1C(=O)c1ccc[nH]1)C(=O)C(=O)NC1CC1 (stereo partly drawn) [Compound 51]
- Ki: > 500 nM

SMILES: CCC[C@H](NC(=O)C1C[C@]2(CC(c3ccc(C(F)(F)F)cc3)=NO2)CN1C(=O)[C@@H](NC(=O)O[C@H]1CCOC1)C(C)(C)C)C(=O)C(=O)NC1CC1 (stereo partly drawn) [Compound 52]
- Ki: 100 to 500 nM

SMILES: CCC[C@H](NC(=O)[C@@H]1C[C@]2(CC(c3ccccc3)=NO2)CN1C(=O)CC1CCN(Cc2c(Cl)cccc2Cl)CC1)C(=O)C(=O)NC1CC1 [Compound 53]
- Ki: > 500 nM

SMILES: CCC[C@H](NC(=O)[C@@H]1C[C@]2(CC(c3ccc(Cl)cc3)=NO2)CN1C(=O)[C@@H](NC(=O)CC1CCCCC1)C(C)(C)C)C(=O)C(=O)NC1CC1 [Compound 55]
- Ki: 100 to 500 nM

SMILES: CCC[C@H](NC(=O)[C@@H]1C[C@]2(CC(C3CCCC3)=NO2)CN1C(=O)[C@@H](NC(=O)O[C@H]1CCOC1)C(C)(C)C)C(=O)C(=O)NC1CC1 [Compound 70]
- Ki: > 500 nM

SMILES: CCC[C@H](NC(=O)[C@@H]1C[C@]2(CC(c3cccc(Cl)c3)=NO2)CN1C(=O)[C@@H](NC(=O)[C@H]1COc2ccccc2O1)C(C)(C)C)C(=O)C(=O)NC1CC1 [Compound 71]
- Ki: > 500 nM

SMILES: CCC[C@H](NC(=O)[C@@H]1C[C@]2(CC(c3cccc(Cl)c3)=NO2)CN1C(=O)[C@@H](NC(=O)CC1CCCC1)C(C)(C)C)C(=O)C(=O)NC1CC1 [Compound 72]
- Ki: 100 to 500 nM

SMILES: CCC[C@H](NC(=O)[C@@H]1C[C@]2(CC(c3cccc(Cl)c3)=NO2)CN1C(=O)[C@@H](NC(=O)Cc1sc(C)nc1C)C(C)(C)C)C(=O)C(=O)NC1CC1 [Compound 75]
- Ki: 100 to 500 nM

SMILES: CCC[C@H](NC(=O)[C@@H]1C[C@]2(CC(c3cccc(Cl)c3)=NO2)CN1C(=O)[C@@H](NC(=O)NC1CC1)C(C)(C)C)C(=O)C(=O)NC1CC1 [Compound 76]
- Ki: 100 to 500 nM

SMILES: CCC[C@H](NC(=O)[C@@H]1C[C@]2(CC(c3ccc(Cl)c(Cl)c3)=NO2)CN1C(=O)[C@@H](NC(=O)CC1CCOCC1)C(C)(C)C)C(=O)C(=O)NC1CC1 [Compound 78]
- Ki: 100 to 500 nM

SMILES: CCC[C@H](NC(=O)[C@@H]1C[C@@]2(CC(c3ccccc3)=NO2)CN1C(=O)c1ccc[nH]1)C(=O)C(=O)NC1CC1 [Compound 80]
- Ki: > 500 nM

SMILES: CCC[C@H](NC(=O)[C@@H]1C[C@]2(CC(c3cccc(Cl)c3)=NO2)CN1C(=O)[C@@H](NC(=O)CN1CCOCC1)C(C)(C)C)C(=O)C(=O)NC1CC1 [Compound 81]
- Ki: > 500 nM

SMILES: CCC[C@H](NC(=O)[C@@H]1C[C@]2(CC(c3ccc4c(c3)OCO4)=NO2)CN1C(=O)[C@@H](NC(=O)CC1CCOCC1)C(C)(C)C)C(=O)C(=O)NC1CC1 [Compound 82]
- Ki: 100 to 500 nM

SMILES: CCC[C@H](NC(=O)[C@@H]1C[C@]2(CC(c3cccc(Cl)c3)=NO2)CN1C(=O)[C@@H](NC(=O)O[C@H]1CCOC1)C(C)(C)C)C(=O)C(=O)NC1CC1 [Compound 83]
- Ki: 100 to 500 nM

SMILES: CCC[C@H](NC(=O)[C@@H]1C[C@]2(CC(c3cccc(Cl)c3)=NO2)CN1C(=O)[C@@H](NC(=O)OCCF)C(C)(C)C)C(=O)C(=O)NC1CC1 [Compound 85]
- Ki: 100 to 500 nM

SMILES: CCC[C@H](NC(=O)[C@@H]1C[C@]2(CC(c3cccc(Cl)c3)=NO2)CN1C(=O)[C@@H](NC(=O)CC1CCOCC1)C(C)(C)C)C(=O)C(=O)NC1CC1 [Compound 92]
- Ki: 100 to 500 nM

SMILES: CCC[C@H](NC(=O)[C@@H]1C[C@]2(CC(c3cccc(Cl)c3)=NO2)CN1C(=O)[C@@H](NC(=O)NCC(N)=O)C(C)(C)C)C(=O)C(=O)NC1CC1 [Compound 94]
- Ki: < 100 nM

SMILES: CCC[C@H](NC(=O)[C@@H]1C[C@]2(CC(c3cc(F)cc(Cl)c3)=NO2)CN1C(=O)[C@@H](NC(=O)CC1CCCCC1)C(C)(C)C)C(=O)C(=O)NC1CC1 [Compound 95]
- Ki: 100 to 500 nM

SMILES: CCC[C@H](NC(=O)[C@@H]1C[C@]2(CC(c3ccccc3)=NO2)CN1C(=O)[C@@H](NS(=O)(=O)c1cccc2ccccc12)C(C)(C)C)C(=O)C(=O)NC1CC1 [Compound 101]
- Ki: > 500 nM
